Measurements reported in the NIST ThermoML archive (doi:10.1016/j.jct.2016.02.025).

Assays:
[1] = refractive index (Na D-line) (dimensionless); conditions: 100 kPa, Standard Abbe refractometry
[2] = 100 kPa; for speed of sound: Frequency=3 MHz, Sing-around technique in a fixed-path interferometer; for mass density: Vibrating tube method

CCCCn1cc[n+](C)c1.[Br-] [1-butyl-3-methylimidazolium bromide]
Metastable liquid
Conditions | mass density, [2] [kg/m3] | refractive index, [1] | speed of sound, [2] [m/s]
293.15 K | 1293.44 | 1.54699 | 1675.2
298.15 K | 1290.02 | 1.54575 | 1665.7
303.15 K | 1286.59 | 1.54445 | 1656
308.15 K | 1283.16 | 1.54312 | 1646
313.15 K | 1279.72 | 1.54186 | 1636.1
318.15 K | 1276.28 | 1.54052 | 1626.7
323.15 K | 1272.84 | 1.53928 | 1616.8

CCCCCCn1cc[n+](C)c1.[Br-] [3-hexyl-1-methyl-1H-imidazolium bromide]
Liquid
Conditions | mass density, [2] [kg/m3] | refractive index, [1] | speed of sound, [2] [m/s]
293.15 K | 1227.46 | 1.51183 | 1609.1
298.15 K | 1223.74 | 1.50982 | 1588.1
303.15 K | 1220.31 | 1.50796 | 1570.4
308.15 K | 1216.69 | 1.50612 | 1552.3
313.15 K | 1213.05 | 1.50427 | 1534.4
318.15 K | 1209.41 | 1.50232 | 1517.4
323.15 K | 1205.58 | 1.50047 | 1500

CCCCCCCCn1cc[n+](C)c1.[Br-] [1-methyl-3-octylimidazolium bromide]
Liquid
Conditions | mass density, [2] [kg/m3] | refractive index, [1] | speed of sound, [2] [m/s]
293.15 K | 1179.3 | 1.498 | 1481.8
298.15 K | 1175.69 | 1.49656 | 1467.6
303.15 K | 1172.08 | 1.49502 | 1454.3
308.15 K | 1168.54 | 1.49347 | 1441.4
313.15 K | 1165.04 | 1.49176 | 1428.8
318.15 K | 1161.52 | 1.49008 | 1416.5
323.15 K | 1157.99 | 1.48842 | 1404.4
